The source made the active and inactive calls. Cut-off read from the data, not from the text of the source, for most assays here: actives have a measured Kd and inactives only a lower limit.
Legend:
[1] = biological target: Casein kinase I isoform epsilon (Homo sapiens, UniProt P49674)
[2] = biological target: Elongation factor Tu, mitochondrial (Homo sapiens, UniProt P49411)
[3] = biological target: Mitogen-activated protein kinase 9 (Homo sapiens, UniProt P45984)
[4] = biological target: Eukaryotic translation initiation factor 2-alpha kinase 1 (Homo sapiens, UniProt Q9BQI3)
[5] = biological target: Serine/threonine-protein kinase MRCK alpha (Homo sapiens, UniProt Q5VT25)
[6] = biological target: Serine/threonine-protein kinase N1 (Homo sapiens, UniProt Q16512)
[7] = biological target: NADH dehydrogenase [ubiquinone] 1 alpha subcomplex subunit 13 (Homo sapiens, UniProt Q9P0J0)
[8] = biological target: T1, Serine/threonine-protein kinase NLK (Homo sapiens, UniProt Q9UBE8)
T1 sequence (Q9UBE8 whole entry): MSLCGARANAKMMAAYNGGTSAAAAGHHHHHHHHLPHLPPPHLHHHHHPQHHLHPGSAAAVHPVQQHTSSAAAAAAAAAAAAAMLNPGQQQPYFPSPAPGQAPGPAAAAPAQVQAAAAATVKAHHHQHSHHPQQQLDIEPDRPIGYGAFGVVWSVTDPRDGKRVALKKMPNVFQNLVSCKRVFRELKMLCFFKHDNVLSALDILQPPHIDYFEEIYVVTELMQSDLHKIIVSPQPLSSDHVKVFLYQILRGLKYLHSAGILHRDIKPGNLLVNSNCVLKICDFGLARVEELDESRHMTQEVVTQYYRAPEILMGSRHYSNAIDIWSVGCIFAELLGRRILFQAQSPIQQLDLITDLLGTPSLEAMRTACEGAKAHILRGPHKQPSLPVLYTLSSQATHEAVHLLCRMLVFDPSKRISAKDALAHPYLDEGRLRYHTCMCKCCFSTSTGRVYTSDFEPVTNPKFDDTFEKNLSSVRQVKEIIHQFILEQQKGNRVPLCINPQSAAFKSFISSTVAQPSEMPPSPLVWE

[9] = biological target: Tyrosine-protein kinase FRK (Homo sapiens, UniProt P42685)
Septin-9 = biological target: T2, Septin-9 (Homo sapiens, UniProt Q9UHD8)
T2 sequence (Q9UHD8 whole entry): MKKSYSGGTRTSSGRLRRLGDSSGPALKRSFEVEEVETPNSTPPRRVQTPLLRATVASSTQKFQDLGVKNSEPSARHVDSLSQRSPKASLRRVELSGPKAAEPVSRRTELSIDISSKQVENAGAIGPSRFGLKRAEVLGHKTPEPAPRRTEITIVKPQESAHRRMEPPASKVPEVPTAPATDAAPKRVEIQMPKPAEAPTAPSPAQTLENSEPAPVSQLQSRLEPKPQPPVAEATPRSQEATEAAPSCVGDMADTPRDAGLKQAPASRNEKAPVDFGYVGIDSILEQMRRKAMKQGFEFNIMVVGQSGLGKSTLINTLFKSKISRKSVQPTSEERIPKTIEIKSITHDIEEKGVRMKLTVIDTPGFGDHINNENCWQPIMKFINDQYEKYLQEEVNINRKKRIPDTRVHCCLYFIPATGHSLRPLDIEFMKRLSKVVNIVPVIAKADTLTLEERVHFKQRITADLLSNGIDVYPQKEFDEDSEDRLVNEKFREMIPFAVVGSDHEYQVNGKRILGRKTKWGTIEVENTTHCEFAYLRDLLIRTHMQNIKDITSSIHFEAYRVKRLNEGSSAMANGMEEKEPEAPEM

Activin receptor type-1B = biological target: T3, Activin receptor type-1B (Homo sapiens, UniProt P36896)
T3 sequence (P36896 whole entry): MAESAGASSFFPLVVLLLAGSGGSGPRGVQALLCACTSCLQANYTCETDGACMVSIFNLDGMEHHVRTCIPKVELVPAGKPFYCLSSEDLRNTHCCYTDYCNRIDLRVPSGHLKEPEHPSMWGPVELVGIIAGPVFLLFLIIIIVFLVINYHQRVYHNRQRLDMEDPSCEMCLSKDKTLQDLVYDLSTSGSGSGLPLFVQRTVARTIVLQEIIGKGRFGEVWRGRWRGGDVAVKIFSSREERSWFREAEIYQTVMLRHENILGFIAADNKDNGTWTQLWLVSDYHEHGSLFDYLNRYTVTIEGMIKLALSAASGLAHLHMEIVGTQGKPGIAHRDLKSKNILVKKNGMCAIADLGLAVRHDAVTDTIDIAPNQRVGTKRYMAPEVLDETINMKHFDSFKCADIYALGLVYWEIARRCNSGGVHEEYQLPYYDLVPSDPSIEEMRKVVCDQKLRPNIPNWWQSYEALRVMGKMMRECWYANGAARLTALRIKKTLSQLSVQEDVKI

[10] = biological target: Dual specificity mitogen-activated protein kinase kinase 1 (Homo sapiens, UniProt Q02750)

Measured: Kd
Note: in the data inactive means no Kd found up to 30 µM.

Serine/threonine-protein kinase MRCK alpha, sequence (Q5VT25 whole entry): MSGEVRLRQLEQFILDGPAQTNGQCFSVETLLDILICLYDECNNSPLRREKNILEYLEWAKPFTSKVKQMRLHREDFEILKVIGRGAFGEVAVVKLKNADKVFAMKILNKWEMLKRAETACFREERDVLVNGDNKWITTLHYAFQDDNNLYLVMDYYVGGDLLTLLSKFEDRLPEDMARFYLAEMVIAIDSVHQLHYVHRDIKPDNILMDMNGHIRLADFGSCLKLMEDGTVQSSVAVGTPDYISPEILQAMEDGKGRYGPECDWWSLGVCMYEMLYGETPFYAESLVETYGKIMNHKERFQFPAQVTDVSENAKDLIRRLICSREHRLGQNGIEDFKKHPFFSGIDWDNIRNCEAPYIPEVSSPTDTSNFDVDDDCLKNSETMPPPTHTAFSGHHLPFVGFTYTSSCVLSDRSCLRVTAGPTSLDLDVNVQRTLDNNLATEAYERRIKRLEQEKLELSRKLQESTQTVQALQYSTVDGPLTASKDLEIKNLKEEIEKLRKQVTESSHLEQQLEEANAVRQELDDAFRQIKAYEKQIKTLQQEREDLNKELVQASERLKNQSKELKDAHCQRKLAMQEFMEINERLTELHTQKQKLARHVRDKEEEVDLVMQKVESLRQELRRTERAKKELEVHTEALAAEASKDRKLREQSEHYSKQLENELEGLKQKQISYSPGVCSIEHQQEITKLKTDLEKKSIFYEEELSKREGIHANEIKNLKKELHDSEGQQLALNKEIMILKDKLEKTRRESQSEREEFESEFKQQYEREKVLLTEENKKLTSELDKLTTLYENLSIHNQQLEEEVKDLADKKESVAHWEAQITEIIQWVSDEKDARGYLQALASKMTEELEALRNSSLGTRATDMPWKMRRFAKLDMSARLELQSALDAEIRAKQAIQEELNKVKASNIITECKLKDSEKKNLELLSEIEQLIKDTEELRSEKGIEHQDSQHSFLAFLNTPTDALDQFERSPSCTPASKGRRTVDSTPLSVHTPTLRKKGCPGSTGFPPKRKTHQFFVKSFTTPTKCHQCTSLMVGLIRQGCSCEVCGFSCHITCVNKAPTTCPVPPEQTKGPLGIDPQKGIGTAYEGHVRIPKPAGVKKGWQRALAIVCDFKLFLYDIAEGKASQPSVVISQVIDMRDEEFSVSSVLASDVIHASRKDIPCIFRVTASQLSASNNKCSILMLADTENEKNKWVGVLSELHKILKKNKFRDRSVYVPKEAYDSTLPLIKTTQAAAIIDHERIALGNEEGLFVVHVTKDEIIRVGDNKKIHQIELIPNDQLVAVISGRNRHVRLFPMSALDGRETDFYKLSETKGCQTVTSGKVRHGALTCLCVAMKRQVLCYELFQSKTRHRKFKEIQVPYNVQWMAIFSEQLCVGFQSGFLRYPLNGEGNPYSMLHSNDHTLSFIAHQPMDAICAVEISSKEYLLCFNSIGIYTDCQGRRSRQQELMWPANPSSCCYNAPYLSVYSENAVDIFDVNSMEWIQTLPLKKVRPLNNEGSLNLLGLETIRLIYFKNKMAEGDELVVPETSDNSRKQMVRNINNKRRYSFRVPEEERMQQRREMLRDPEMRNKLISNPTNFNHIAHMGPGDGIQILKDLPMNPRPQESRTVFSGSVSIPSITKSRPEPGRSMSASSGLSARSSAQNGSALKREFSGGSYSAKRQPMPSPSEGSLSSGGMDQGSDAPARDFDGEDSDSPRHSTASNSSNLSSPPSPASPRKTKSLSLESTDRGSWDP
Mitogen-activated protein kinase 9, sequence (P45984 whole entry): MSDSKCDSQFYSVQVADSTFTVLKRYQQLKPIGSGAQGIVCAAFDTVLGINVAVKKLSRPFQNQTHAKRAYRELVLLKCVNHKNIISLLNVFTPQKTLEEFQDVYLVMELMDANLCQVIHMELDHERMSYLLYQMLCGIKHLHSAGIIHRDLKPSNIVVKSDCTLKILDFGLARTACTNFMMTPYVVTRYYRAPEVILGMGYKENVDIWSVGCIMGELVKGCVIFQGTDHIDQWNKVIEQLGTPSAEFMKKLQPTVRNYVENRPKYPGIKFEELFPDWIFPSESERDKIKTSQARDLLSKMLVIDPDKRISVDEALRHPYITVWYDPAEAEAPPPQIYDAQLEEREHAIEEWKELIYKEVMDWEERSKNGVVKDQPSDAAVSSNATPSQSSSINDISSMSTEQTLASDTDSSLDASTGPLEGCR
Eukaryotic translation initiation factor 2-alpha kinase 1, sequence (Q9BQI3 whole entry): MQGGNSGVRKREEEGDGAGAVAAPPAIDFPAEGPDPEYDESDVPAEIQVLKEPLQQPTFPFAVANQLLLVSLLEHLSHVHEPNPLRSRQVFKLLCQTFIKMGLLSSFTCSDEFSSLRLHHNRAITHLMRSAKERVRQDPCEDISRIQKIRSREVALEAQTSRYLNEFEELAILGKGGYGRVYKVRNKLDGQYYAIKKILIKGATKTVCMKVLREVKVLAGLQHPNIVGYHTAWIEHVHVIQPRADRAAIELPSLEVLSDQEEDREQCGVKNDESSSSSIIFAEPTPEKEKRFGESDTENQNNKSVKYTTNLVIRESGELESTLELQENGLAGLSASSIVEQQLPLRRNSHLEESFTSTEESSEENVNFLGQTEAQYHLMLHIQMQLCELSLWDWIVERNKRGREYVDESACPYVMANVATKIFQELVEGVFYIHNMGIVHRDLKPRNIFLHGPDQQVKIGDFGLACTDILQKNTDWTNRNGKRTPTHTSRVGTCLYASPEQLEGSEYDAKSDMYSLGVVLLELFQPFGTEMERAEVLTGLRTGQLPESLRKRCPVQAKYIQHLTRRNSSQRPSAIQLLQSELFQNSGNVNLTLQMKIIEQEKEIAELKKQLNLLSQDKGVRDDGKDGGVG
Dual specificity mitogen-activated protein kinase kinase 1, sequence (Q02750 whole entry): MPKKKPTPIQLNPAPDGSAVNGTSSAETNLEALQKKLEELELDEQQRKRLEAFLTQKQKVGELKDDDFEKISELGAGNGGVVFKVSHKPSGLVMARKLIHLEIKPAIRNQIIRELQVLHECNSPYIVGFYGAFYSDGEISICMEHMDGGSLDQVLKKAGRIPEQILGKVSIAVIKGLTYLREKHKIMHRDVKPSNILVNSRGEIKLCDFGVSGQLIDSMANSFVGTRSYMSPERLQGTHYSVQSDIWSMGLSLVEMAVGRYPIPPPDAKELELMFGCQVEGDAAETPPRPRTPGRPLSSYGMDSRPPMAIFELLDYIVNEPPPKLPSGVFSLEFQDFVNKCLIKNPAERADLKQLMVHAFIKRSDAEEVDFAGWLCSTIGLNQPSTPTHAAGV
NADH dehydrogenase [ubiquinone] 1 alpha subcomplex subunit 13, sequence (Q9P0J0 whole entry, one chain of several): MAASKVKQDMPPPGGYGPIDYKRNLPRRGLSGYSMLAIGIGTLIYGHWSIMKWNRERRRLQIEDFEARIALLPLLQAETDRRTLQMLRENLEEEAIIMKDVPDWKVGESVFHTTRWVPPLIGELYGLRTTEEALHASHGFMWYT
Tyrosine-protein kinase FRK, sequence (P42685 whole entry): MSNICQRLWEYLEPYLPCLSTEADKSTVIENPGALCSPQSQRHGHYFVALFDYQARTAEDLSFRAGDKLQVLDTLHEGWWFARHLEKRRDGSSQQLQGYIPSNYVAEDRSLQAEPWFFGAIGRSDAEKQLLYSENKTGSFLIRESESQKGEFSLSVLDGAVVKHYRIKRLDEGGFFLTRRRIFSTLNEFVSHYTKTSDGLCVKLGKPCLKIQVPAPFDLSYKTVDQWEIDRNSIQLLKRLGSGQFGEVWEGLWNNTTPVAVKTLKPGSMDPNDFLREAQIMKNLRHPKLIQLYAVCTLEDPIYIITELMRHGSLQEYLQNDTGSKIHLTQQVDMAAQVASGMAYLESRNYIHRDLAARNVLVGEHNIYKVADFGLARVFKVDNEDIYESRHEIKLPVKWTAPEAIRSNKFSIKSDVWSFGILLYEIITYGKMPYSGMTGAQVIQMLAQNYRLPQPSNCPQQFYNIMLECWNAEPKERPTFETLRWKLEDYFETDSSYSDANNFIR
Serine/threonine-protein kinase N1, sequence (Q16512 whole entry): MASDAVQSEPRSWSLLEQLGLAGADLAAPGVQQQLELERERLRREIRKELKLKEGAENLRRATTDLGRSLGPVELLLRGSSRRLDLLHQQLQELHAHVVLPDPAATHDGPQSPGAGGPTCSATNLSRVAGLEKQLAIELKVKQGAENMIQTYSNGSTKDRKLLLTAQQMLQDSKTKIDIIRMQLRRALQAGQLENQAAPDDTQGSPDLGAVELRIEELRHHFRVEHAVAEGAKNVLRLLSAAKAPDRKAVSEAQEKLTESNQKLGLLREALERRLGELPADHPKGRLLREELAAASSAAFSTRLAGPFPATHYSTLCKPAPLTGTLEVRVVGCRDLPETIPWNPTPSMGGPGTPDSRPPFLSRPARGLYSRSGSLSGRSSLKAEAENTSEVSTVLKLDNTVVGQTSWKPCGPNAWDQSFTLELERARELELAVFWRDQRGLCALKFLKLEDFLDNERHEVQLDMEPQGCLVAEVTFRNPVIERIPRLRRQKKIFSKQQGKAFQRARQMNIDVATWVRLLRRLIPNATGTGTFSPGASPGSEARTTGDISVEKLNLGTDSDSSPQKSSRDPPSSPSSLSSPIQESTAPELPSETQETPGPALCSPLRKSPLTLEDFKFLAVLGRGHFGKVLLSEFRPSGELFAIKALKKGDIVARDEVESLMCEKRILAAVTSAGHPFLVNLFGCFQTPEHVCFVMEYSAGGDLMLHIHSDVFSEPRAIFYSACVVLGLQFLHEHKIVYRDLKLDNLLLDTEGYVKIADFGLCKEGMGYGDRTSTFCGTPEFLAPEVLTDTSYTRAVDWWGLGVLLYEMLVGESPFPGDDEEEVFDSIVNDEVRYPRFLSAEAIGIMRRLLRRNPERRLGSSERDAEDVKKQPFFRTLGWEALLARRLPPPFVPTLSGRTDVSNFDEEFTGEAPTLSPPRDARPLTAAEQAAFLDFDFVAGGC

CCS(=O)(=O)N1CC(CC#N)(n2cc(-c3ncnc4[nH]ccc34)cn2)C1 [BARICITINIB]
inactive: [1] > 30 µM | [2] > 30 µM | [3] > 30 µM | [5] > 30 µM | [7] > 30 µM | [8] > 30 µM | [9] > 30 µM | Activin receptor type-1B > 30 µM | [10] > 30 µM
active: [4] 0.335 µM | [6] 0.104 µM
0.084 µM: Septin-9

Cc1cc2c(F)c(Oc3ncnn4cc(OC[C@@H](C)OC(=O)[C@H](C)N)c(C)c34)ccc2[nH]1 [BRIVANIB ALANINATE]
inactive: [1] > 30 µM | [2] > 30 µM | [3] > 30 µM | [4] > 30 µM | [5] > 30 µM | [6] > 30 µM | [7] > 30 µM | [8] > 30 µM | [9] > 30 µM | Septin-9 > 30 µM | Activin receptor type-1B > 30 µM | [10] > 30 µM

O=C(c1ccc(F)c(F)c1Nc1ccc(I)cc1F)N1CC(O)([C@@H]2CCCCN2)C1 [COBIMETINIB]
inactive: [1] > 30 µM | [2] > 30 µM | [3] > 30 µM | [4] > 30 µM | [5] > 30 µM | [6] > 30 µM | [7] > 30 µM | [8] > 30 µM | [9] > 30 µM | Septin-9 > 30 µM | Activin receptor type-1B > 30 µM
active: [10] 0.309 µM

COC(=O)N[C@@H](C)CNc1nccc(-c2cn(C(C)C)nc2-c2cc(Cl)cc(NS(C)(=O)=O)c2F)n1 [ENCORAFENIB]
active: [3] 0.915 µM | [8] 0.732 µM
inactive: [1] > 30 µM | [2] > 30 µM | [4] > 30 µM | [5] > 30 µM | [6] > 30 µM | [7] > 30 µM | [9] > 30 µM | Septin-9 > 30 µM | Activin receptor type-1B > 30 µM | [10] > 30 µM

CO[C@H]1C[C@@H]2CC[C@@H](C)[C@@](O)(O2)C(=O)C(=O)N2CCCC[C@H]2C(=O)O[C@H]([C@H](C)C[C@@H]2CC[C@@H](OCCO)[C@H](OC)C2)CC(=O)[C@H](C)/C=C(\C)[C@@H](O)[C@@H](OC)C(=O)[C@H](C)C[C@H](C)/C=C/C=C/C=C/1C [EVEROLIMUS]
inactive: [1] > 30 µM | [2] > 30 µM | [3] > 30 µM | [4] > 30 µM | [5] > 30 µM | [6] > 30 µM | [7] > 30 µM | [8] > 30 µM | [9] > 30 µM | Septin-9 > 30 µM | Activin receptor type-1B > 30 µM | [10] > 30 µM

COCCNCc1ccc(-c2cc3nccc(Oc4ccc(NC(=S)NC(=O)Cc5ccc(F)cc5)cc4F)c3s2)nc1 [GLESATINIB]
active: [9] 1.1 µM
inactive: [1] > 30 µM | [2] > 30 µM | [3] > 30 µM | [4] > 30 µM | [5] > 30 µM | [6] > 30 µM | [7] > 30 µM | [8] > 30 µM | Septin-9 > 30 µM | Activin receptor type-1B > 30 µM | [10] > 30 µM

CC[C@H](Nc1ncnc2[nH]cnc12)c1nc2cccc(F)c2c(=O)n1-c1ccccc1 [IDELALISIB]
inactive: [1] > 30 µM | [2] > 30 µM | [3] > 30 µM | [4] > 30 µM | [5] > 30 µM | [6] > 30 µM | [7] > 30 µM | [8] > 30 µM | [9] > 30 µM | Septin-9 > 30 µM | Activin receptor type-1B > 30 µM | [10] > 30 µM

Cn1cc(-c2ccc3nnc(C(F)(F)c4ccc5ncccc5c4)n3n2)cn1 [JNJ-38877605]
inactive: [1] > 30 µM | [2] > 30 µM | [3] > 30 µM | [4] > 30 µM | [5] > 30 µM | [6] > 30 µM | [7] > 30 µM | [8] > 30 µM | [9] > 30 µM | Septin-9 > 30 µM | Activin receptor type-1B > 30 µM | [10] > 30 µM

— ChEMBL document CHEMBL3991601, “The target landscape of clinical kinase drugs” (Science, 2017)
